Assays:
[1] = biological target: T1, GABA-A receptor; alpha-1/beta-3/gamma-2 (Homo sapiens, UniProt P14867+P18507+P28472); assay: Binding affinity at human GABAA alpha-1-beta-3-gamma-2S expressed in Xenopus oocytes by voltage-clamp electrophysiology; assay type: functional, cell-based, Oocyte
T1 sequence (P14867 whole entry): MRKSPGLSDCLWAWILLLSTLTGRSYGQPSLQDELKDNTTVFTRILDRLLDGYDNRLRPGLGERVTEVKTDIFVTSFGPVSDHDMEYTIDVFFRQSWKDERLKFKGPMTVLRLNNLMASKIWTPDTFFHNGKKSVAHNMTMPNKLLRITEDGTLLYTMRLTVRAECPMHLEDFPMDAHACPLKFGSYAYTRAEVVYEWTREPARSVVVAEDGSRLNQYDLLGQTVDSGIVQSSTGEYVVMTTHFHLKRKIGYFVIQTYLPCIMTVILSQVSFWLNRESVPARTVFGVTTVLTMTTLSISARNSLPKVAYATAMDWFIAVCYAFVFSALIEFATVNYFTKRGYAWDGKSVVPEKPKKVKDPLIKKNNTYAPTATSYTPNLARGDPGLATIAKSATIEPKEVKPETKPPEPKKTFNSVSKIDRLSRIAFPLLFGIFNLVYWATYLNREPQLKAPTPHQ
T1 sequence (P18507 whole entry): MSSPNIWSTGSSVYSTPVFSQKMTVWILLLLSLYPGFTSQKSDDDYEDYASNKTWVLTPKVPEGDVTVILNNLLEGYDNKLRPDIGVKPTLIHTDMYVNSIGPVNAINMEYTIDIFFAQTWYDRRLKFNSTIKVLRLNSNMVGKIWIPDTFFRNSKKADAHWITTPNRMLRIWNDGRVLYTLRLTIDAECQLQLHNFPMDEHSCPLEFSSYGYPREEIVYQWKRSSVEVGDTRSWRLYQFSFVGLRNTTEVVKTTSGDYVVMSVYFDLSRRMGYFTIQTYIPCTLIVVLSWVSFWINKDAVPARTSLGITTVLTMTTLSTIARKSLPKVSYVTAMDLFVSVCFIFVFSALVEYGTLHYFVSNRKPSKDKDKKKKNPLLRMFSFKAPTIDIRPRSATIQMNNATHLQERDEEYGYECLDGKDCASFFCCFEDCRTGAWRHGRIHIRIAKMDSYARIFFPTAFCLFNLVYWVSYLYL
T1 sequence (P28472 whole entry): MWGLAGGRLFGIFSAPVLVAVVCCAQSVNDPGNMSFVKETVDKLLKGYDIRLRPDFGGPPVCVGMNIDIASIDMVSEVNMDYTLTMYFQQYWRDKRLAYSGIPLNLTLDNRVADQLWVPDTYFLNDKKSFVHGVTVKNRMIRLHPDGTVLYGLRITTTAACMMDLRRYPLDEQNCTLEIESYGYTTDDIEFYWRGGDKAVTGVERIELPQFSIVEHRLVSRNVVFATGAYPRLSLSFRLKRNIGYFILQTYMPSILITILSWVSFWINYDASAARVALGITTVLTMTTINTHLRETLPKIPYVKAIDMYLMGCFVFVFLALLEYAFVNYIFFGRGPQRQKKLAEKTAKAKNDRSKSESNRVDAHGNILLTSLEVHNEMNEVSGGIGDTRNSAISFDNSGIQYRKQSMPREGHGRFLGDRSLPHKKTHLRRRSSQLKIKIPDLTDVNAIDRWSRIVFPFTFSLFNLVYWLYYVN

[2] = biological target: GABA A receptor alpha-5/beta-3/gamma-2 (Rattus norvegicus, UniProt P18508+P19969+P63079); assay: Displacement of [3H]muscimol from GABAA alpha-1-beta-3-gamma-2S in rat brain membrane; assay type: cell membranes
[3] = Binding affinity at human GABAA alpha-4-beta-3-delta expressed in Xenopus oocytes by voltage-clamp electrophysiology; assay type: functional, cell-based; conditions: oocyte
[4] = biological target: GABA-A receptor; alpha-1/beta-3/gamma-2 (Homo sapiens) (UniProt P14867+P18507+P28472); assay: Maximal effect at GABA alpha-1-beta-3-gamma-2S expressed in Xenopus oocytes; assay type: functional, cell-based; conditions: Oocyte
[5] = Maximal effect at GABA alpha-4-beta-3-delta expressed in Xenopus oocytes; assay type: functional; conditions: Homo sapiens, Oocyte

GABA A receptor alpha-5/beta-3/gamma-2, sequence (P18508 whole entry): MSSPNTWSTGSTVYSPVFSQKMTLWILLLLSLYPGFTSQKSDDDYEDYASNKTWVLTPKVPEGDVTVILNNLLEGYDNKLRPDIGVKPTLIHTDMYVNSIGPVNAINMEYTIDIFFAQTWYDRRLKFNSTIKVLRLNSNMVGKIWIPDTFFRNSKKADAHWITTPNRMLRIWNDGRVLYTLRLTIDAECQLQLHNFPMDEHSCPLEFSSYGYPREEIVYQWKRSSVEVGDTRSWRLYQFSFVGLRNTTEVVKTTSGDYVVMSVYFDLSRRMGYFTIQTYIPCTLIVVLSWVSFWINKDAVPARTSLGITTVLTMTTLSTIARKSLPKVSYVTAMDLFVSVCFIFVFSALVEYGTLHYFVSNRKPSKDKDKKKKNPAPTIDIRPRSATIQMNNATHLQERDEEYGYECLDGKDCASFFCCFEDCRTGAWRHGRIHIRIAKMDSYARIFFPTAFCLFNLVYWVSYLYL
GABA A receptor alpha-5/beta-3/gamma-2, sequence (P19969 whole entry): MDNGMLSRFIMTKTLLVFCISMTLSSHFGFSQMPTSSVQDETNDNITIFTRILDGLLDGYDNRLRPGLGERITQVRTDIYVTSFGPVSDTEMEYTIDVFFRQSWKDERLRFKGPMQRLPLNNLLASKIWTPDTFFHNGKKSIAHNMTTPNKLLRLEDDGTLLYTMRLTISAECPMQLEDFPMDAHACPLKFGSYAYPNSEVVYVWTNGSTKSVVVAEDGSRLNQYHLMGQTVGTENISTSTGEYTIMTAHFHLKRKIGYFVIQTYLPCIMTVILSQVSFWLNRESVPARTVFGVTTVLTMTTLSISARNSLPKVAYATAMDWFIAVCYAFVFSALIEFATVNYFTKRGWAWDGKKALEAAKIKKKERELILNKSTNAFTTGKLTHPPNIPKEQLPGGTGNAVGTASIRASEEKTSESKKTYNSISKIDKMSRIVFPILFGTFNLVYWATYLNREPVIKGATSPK
GABA A receptor alpha-5/beta-3/gamma-2, sequence (P63079 whole entry): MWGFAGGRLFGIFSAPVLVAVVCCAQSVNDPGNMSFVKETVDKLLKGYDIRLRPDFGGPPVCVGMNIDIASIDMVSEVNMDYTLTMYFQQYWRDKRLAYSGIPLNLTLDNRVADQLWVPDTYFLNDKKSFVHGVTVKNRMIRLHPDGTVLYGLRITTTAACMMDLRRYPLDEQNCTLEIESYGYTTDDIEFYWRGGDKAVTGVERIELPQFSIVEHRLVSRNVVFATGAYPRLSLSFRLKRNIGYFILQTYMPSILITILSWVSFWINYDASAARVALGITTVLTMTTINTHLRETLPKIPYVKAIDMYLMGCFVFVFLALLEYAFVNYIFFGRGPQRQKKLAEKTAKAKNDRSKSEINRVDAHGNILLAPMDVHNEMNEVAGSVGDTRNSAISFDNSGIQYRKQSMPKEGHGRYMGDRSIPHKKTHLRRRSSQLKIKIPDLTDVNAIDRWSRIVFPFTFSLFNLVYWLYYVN

| SMILES | Ki [1] [nM] | Ki [2] [nM] | Ki [3] [nM] | Emax [4] [%] | Emax [5] [%] |
| --- | --- | --- | --- | --- | --- |
| Oc1noc(C2CCNCC2)c1Cc1ccc2ccccc2c1 | 370 | 49 | – | – | – |
| Cc1c(O)nsc1C1CCNCC1 | 2880 | 2200 | – | – | – |
| Oc1nsc(C2CCNCC2)c1Cc1ccc2ccccc2c1Br | 3 | 1.8 | – | – | – |
| Oc1noc(C2CCNCC2)c1CCC(c1ccccc1)c1ccccc1 | 20 | 68 | 2.3 | 90 | – |
| Oc1nsc(C2CCNCC2)c1Cc1ccc2ccccc2c1 | 22 | 5.2 | – | – | – |
| Oc1cc(C2CCNCC2)sn1 | 25700 | 1870 | – | – | – |
| O=c1[nH]sc(C2CCNCC2)c1CC(c1ccccc1)c1ccccc1 | 720 | 388 | – | – | – |
| Oc1nsc(C2CCNCC2)c1CCC(c1ccccc1)c1ccccc1 | 1.2 | 9.6 | 0.35 | – | 40 |
| Oc1nsc(C2CCNCC2)c1Cc1ccccc1 | 465 | 331 | – | – | – |
| CCCc1c(C2CCNCC2)s[nH]c1=O | 230 | 440 | – | – | – |

Source: ChEMBL document CHEMBL1149421, “Potent 4-arylalkyl-substituted 3-isothiazolol GABA(A) competitive/noncompetitive antagonists: synthesis and pharmacology” (J Med Chem, 2006)
